Source: ChEMBL document CHEMBL1129354, “Molecular modeling and site-directed mutagenesis studies of a phorbol ester-binding site in protein kinase C” (J Med Chem, 1996)
Calls of active or inactive are those of the source. The calls are words filed in the database; no cut-off is given here.

Target: Protein kinase C alpha type (Homo sapiens) (UniProt P17252)
Test: Relative binding affinity for Protein kinase C alpha (Inactive)

- Relative binding affinity: inactive
SMILES: CCCCCCCCCCCCCCCC(=O)OC[C@@H](CO)OC(=O)CCCCCCCCCCCCCCC
